Results from patent US8440652B2, “MST1 kinase inhibitors and methods of their use” (Lexicon Pharmaceuticals, Inc., priority 2011, dated 2013).
Read-outs that look alike come from different tables or passages of the source.

Molecular target: T1, MST1 (Homo sapiens, UniProt Q13043)
T1 sequence (Q13043 1-487): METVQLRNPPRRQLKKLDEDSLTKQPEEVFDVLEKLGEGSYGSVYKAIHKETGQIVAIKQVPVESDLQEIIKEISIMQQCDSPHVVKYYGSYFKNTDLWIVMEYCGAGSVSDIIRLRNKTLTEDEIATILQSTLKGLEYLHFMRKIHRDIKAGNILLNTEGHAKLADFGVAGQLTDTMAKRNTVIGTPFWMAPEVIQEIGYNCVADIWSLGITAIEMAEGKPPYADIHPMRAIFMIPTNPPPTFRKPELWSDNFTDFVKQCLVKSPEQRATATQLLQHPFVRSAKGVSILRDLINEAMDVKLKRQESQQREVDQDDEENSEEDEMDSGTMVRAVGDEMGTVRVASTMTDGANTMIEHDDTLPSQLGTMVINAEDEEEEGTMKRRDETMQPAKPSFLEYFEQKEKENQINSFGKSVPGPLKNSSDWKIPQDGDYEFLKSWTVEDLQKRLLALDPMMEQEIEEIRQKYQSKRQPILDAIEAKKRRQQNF
Experiment: In vitro measurement of MST1 inhibition (Z′-Lyte kinase assay)
Assay type: biochemical
Protocol: Assays were performed in low-volume 384-well black proxiplates (Perkin Elmer, PE-Blk-Proxi-6008269). Eight compounds were first diluted into LDV (Echo) plates using a Multiprobe, at a starting concentration of 1 mM compound in 100% DMSO. Using the ECHO, 75 nl compound was pinged into 384-well proxiplates. The starting concentration of compound in each assay plate is 7.5 uM, followed by 3-fold dilutions, to give quadruplicate ten-point concentration curves. A 3× solution of MST1 enzyme in kinase buffer (Invitrogen, PR4940C) was added to wells containing compound or DMSO controls, followed by a 10 minute preincubation step. Reactions were initiated by adding 5 μL of a mixture of ATP and Z′-Lyte S/T Pep 7 (Invitrogen, PV3180) and proceeded at RT for 1 hour. […] At the end of the kinase reaction, 10 ul of developing solution (Invitrogen, catalog #PR4876B; development buffer A diluted […] in development buffer B) was added to each well and incubated at RT for 1 hr. All wells were read on a Tecan at 400 nm excitation and 460 nm/530 nm emission. Plus and minus enzyme controls were used to calculate percent inhibition and IC50 curves were generated using Excel.

[1] = 1 μM ATP, read-out: IC50 (μM) 1 μM ATP
[2] = 50 μM ATP, read-out: IC50 (μM) 50 μM ATP

Row | Compound | IC50 [1] [µM] | IC50 [2] [µM]
1 | N#CC1(c2ccc(-c3cnc(N)c(-c4ccc5c(c4)CCNC5=O)c3)cc2)CC1 [1-(4-(6-amino-5-(1-oxo-1,2,3,4-tetrahydroisoquinolin-6-yl)pyridin-3-yl)phenyl)cyclopropanecarbonitrile] | < 0.05 | < 0.05
2 | CC(C)(C#N)c1ccc(-c2cnc(N)c(-c3ccc4c(c3)CCNC4=O)c2)cn1 [2-(6′-amino-5′-(1-oxo-1,2,3,4-tetrahydroisoquinolin-6-yl)-[3,3′-bipyridin]-6-yl)-2-methylpropanenitrile] | < 0.05 | < 0.05
3 | CN(C1CC1)S(=O)(=O)c1ccc(-c2cnc(N)c(-c3ccc4c(c3)C(C)(C)NC4=O)c2)cc1 [4-(6-amino-5-(3,3-dimethyl-1-oxoisoindolin-5-yl)pyridin-3-yl)-N-cyclopropyl-N-methylbenzenesulfonamide] | < 0.01 | < 0.01
4 | CCN(C)S(=O)(=O)c1ccc(-c2cnc(N)c(-c3ccc4c(c3)CCNC4=O)c2)s1 [5-(6-amino-5-(1-oxo-1,2,3,4-tetrahydroisoquinolin-6-yl)pyridin-3-yl)-N-ethyl-N-methylthiophene-2-sulfonamide] | < 0.05 | < 0.01
5 | CC1(C)CNC(=O)c2ccc(-c3nc(-c4ccc(C5(C#N)CC5)cc4)cnc3N)cc21 [1-(4-(5-amino-6-(4,4-dimethyl-1-oxo-1,2,3,4-tetrahydroisoquinolin-6-yl)pyrazin-2-yl)phenyl)cyclopropanecarbonitrile] | < 0.01 | < 0.01
6 | CN(C1CC1)S(=O)(=O)c1ccc(-c2cnc(N)c(-c3ccc4c(c3)CCNC4=O)n2)cn1 [5-(5-amino-6-(1-oxo-1,2,3,4-tetrahydroisoquinolin-6-yl)pyrazin-2-yl)-N-cyclopropyl-N-methylpyridine-2-sulfonamide] | < 0.05 | < 0.01
7 | C[C@@H]1C[C@H]1N(C)S(=O)(=O)c1ccc(-c2cnc(N)c(-c3ccc4c(c3)CCNC4=O)n2)cc1 [4-(5-amino-6-(1-oxo-1,2,3,4-tetrahydroisoquinolin-6-yl)pyrazin-2-yl)-N-methyl-N-((1R,2R)-2-methylcyclopropyl)benzenesulfonamide] | < 0.01 | < 0.01
8 | CCN(C)S(=O)(=O)c1ccc(-c2cnc(N)c(-c3ccc4c(c3)CCNC4=O)n2)cc1C [4-(5-amino-6-(1-oxo-1,2,3,4-tetrahydroisoquinolin-6-yl)pyrazin-2-yl)-N-ethyl-N,2-dimethylbenzenesulfonamide] | < 0.01 | < 0.01
9 | CN(C1CC1)S(=O)(=O)c1ccc(-c2cnc(N)c(-c3ccc4c(c3)CCN(CCC#N)C4=O)c2)cc1 [4-(6-amino-5-(2-(2-cyanoethyl)-1-oxo-1,2,3,4-tetrahydroisoquinolin-6-yl)pyridin-3-yl)-N-cyclopropyl-N-methylbenzenesulfonamide] | < 0.15 | < 0.05
10 | N#CC1(c2ccc(-c3cnc(N)c(-c4ccc5c(c4)NCCNC5=O)n3)cc2)CCOCC1 [4-(4-(5-amino-6-(5-oxo-2,3,4,5-tetrahydro-1H-benzo[e][1,4]diazepin-8-yl)pyrazin-2-yl)phenyl)tetrahydro-2H-pyran-4-carbonitrile] | < 0.05 | < 0.01
11 | Nc1ncc(-c2ccc(S(=O)(=O)CC3CC3)cc2)nc1-c1ccc2c(c1)CCNC2=O [6-(3-amino-6-(4-((cyclopropylmethyl)sulfonyl)phenyl)pyrazin-2-yl)-3,4-dihydroisoquinolin-1(2H)-one] | < 0.05 | < 0.01
12 | CC(C)(c1ccc(-c2cnc(N)c(-c3ccc4c(c3)CCNC4=O)c2)cc1)N1CCOCC1 [6-(2-amino-5-(4-(2-morpholinopropan-2-yl)phenyl)pyridin-3-yl)-3,4-dihydroisoquinolin-1(2H)-one] | < 0.05 | < 0.01
13 | Cc1cc(-c2cnc(N)c(-c3ccc4c(c3)C3(CC3)CNC4=O)n2)ccc1S(=O)(=O)NC1CC1 [4-(5-amino-6-(1′-oxo-2′,3′-dihydro-1′H-spiro[cyclopropane-1,4′-isoquinolin]-6′-yl)pyrazin-2-yl)-N-cyclopropyl-2-methylbenzenesulfonamide] | < 0.01 | < 0.01
14 | C[C@H]1CNc2cc(-c3nc(-c4ccc(S(=O)(=O)N(C)C5CC5)cc4)cnc3N)ccc2C(=O)N1 [(S)-4-(5-amino-6-(3-methyl-5-oxo-2,3,4,5-tetrahydro-1H-benzo[e][1,4]diazepin-8-yl)pyrazin-2-yl)-N-cyclopropyl-N-methylbenzenesulfonamide] | < 0.01 | < 0.01
15 | CC1(C)NC(=O)c2ccc(-c3nc(-c4ccc(S(=O)(=O)NC5CC5)cc4)cnc3N)cc21 [4-(5-amino-6-(3,3-dimethyl-1-oxoisoindolin-5-yl)pyrazin-2-yl)-N-cyclopropylbenzenesulfonamide] | < 0.05 | < 0.01
16 | CN(C1CC1)S(=O)(=O)c1ccc(-c2cnc(N)c(-c3ccc4c(c3)NCCNC4=O)n2)cc1 [4-(5-amino-6-(5-oxo-2,3,4,5-tetrahydro-1H-benzo[e][1,4]diazepin-8-yl)pyrazin-2-yl)-N-cyclopropyl-N-methylbenzenesulfonamide] | < 0.01 | < 0.01
17 | Nc1ncc(-c2ccc(S(=O)(=O)NC3CC3)cc2)nc1-c1ccc2c(c1)C1(CC1)NC2=O [4-(5-amino-6-(3′-oxospiro[cyclopropane-1,1′-isoindolin]-6′-yl)pyrazin-2-yl)-N-cyclopropylbenzenesulfonamide] | < 0.05 | < 0.01
18 | CN(C1CC1)S(=O)(=O)c1ccc(-c2cnc(N)c(-c3cc4c(cn3)C(=O)NCC4)c2)cc1 [4-(6-amino-5-(8-oxo-5,6,7,8-tetrahydro-2,7-naphthyridin-3-yl)pyridin-3-yl)-N-cyclopropyl-N-methylbenzenesulfonamide] | < 0.01 | < 0.01
19 | CC(C)(C)OC(=O)N1CC=C(c2cnc(N)c(-c3ccc4c(c3)CCNC4=O)c2)CC1 [tert-butyl 6-amino-5-(1-oxo-1,2,3,4-tetrahydroisoquinolin-6-yl)-5′,6′-dihydro-[3,4′-bipyridine]-1′(2′H)-carboxylate] | < 0.15 | < 0.05
20 | CN(C)c1nc(-c2cnc(N)c(-c3ccc4c(c3)CCNC4=O)c2)cs1 [6-(2-amino-5-(2-(dimethylamino)thiazol-4-yl)pyridin-3-yl)-3,4-dihydroisoquinolin-1(2H)-one] |  | < 0.05
21 | CN(C1CC1)S(=O)(=O)c1ccc(-c2cnc(N)c(-c3ccc4c(c3)C3(CC3)CNC4=O)n2)cc1 [4-(5-amino-6-(1′-oxo-2′,3′-dihydro-1′H-spiro[cyclopropane-1,4′-isoquinolin]-6′-yl)pyrazin-2-yl)-N-cyclopropyl-N-methylbenzenesulfonamide] | < 0.01 | < 0.01
22 | CCN(CC)S(=O)(=O)c1ccc(-c2cnc(N)c(-c3ccc4c(O)n[nH]c4c3)c2)cc1 [4-(6-amino-5-(3-hydroxy-1H-indazol-6-yl)pyridin-3-yl)-N,N-diethylbenzenesulfonamide] |  | < 0.15
23 | CC(=O)N1CC(C)(C)c2cc(-c3nc(-c4ccc(S(=O)(=O)N(C)C5CC5)cc4)cnc3N)ccc21 [4-(6-(1-acetyl-3,3-dimethylindolin-5-yl)-5-aminopyrazin-2-yl)-N-cyclopropyl-N-methylbenzenesulfonamide] | < 0.05 | < 0.01
